Reference: patent publication EP1254251B1, “NEUROSTEROIDS AS MARKERS FOR ALZHEIMER'S DISEASE” (Georgetown University, priority 2000, dated 2001)

Assays:
MGM-1 = experiment: Alternative pathway D synthesis in cells treated with FeSO4, or with Ab with or without Vitamin E (TLC, RIA); type: cell-based, human; conditions: MGM-1, 50 mM Aβ, vs control, p < 0.01
Experimental: Alternative Pathway: To determine the amount ofD synthesized by the alternative pathway cells were treated as previously described. (15). In brief, cells were washed and oligodendrocytes and astrocytes were incubated with increasing concentrations of FeSO4 in serum free media, with and without SU 10603 (10 mM); neurons were incubated in serum free media containing 5 mM P plus FeSO4 with and without 10 mM SU 10603. After two hours, cells and media were homogenized and extracted as described above. Extracts were run on C 18 TLC plates (Whatman, Clifton, NJ) with a mobile phase of 95% methanol (v/v); radiolabeled standards for P, progesterone, and D were run on each plate, and appropriate steroid fractions were collected for each sample. TLC fractions were extracted with 2 ml diethyl ether (Fluka, New York) and evaporated. TLC extracts were assayed by specific radioimmunoassay (RIA). […]
RIA using antibodies specific for each steroid (ICN Pharmaceuticals, Costa Mesa, CA Mesa) was used to measure P, progesterone and D levels. The data were analyzed using the IBM-PC RIA Data Reduction Program (version 4.1) from Jaffe and Associates (Silver Spring, MD). Levels of β-amyloid species in AD and control brain samples were analyzed using 4G8 (Senetex PLC, Napa, CA), a monoclonal antibody to β-amyloid peptide that recognizes amino acids 17-24. […]

MGM-1 human glioma cells = experiment: ROS measurement by 2,7-DCF fluorescence; type: cell-based; conditions: MGM-1, 50 mM Aβ, vs control, p < 0.01
Experimental: β-Amyloid Regulation of the Alternative Pathway: MGM-1 cells were plated on 96 well (~5,000 cells/well, for ROS measurements) or 24 well (~15,000 cells/well, for D measurements) plates (Corning Costar, Acton, MA). At the same time, 1 mg Ab (Ab (1-42), AnaSpec Inc., San Jose, CA) was dissolved in 0.5 ml serum-free media and incubated at 4C for aggregation. 24 hours later, cells were incubated in DMEM with 10% fetal bovine serum and […] or […] and 10 mM Vitamin E (Sigma, St. Louis, MO). Control samples were incubated in DMEM with 10% FBS. Cells were incubated at 37C and 6% CO2 for at least 12 hours and processed for ROS generation (see below) or D synthesis as described above for the alternative experiments.
Treatment media was removed and the cells were washed with PBS. The fluorescent probe 2,7- dichlorofluorescin diacetate (2,7-DCF, Molecular Probes, Inc., Eugene, OR) was used to measure levels of oxidative stress (48). Cells were incubated with […] 2,7-DCF, fluorescence was measured at 485nm/535nm using the Victor^2 Multilabel Counter (EG&G Wallac, Gaithersburg, MD) and values of cellular fluorescence were obtained.

Question: For “Ab: Ab (1-42), AnaSpec Inc.; β-amyloid, a component of Alzheimer's disease plaques”, which D levels (MGM-1) is on record?
Answer: increased D levels significantly

Question: What about the “2,7-DCF fluorescence (ROS)” value (MGM-1 human glioma cells) of the same substance?
Answer: significant increase
